Assays:
SIRT6 WT = SIRT6 WT (Homo sapiens, UniProt Q8N6T7); assay: Steady-state deacetylation rate of SIRT6 WT with or without CL5D; type: biochemical; details: SIRT6 WT 1 μM, H3K9ac 40 μM, CL5D 50 μM, 25 minutes
Protocol: All sirtuin deacylation assays were carried out at 37° C. in 20 mM potassium phosphate pH 7.5 with 0.5 mM NAD^+, 10% DMSO, and 20 μM H3K9ac or H3K9myr peptides, unless otherwise noted in legend, and quenched by the addition of 2% TFA final. Steady-state reactions were constrained to less than 20% substrate turnover to prevent product inhibition. A variety of times were required to monitor SIRT6 deacetylation (2-60 minutes) under this restraint given the ability to strongly activate catalysis. In these cases, specific activities were determined and either reported as is or as fold-activation of specific activity. Deacylation reactions were analyzed by reversed phase high-performance liquid chromatography on a Kinetex C18 column (100 Å, 100×4.6 mm, 2.6 μm, Phenomenex) by monitoring the formation of the deacylated product at 214 nm. Deacetylation reactions were analyzed using a gradient of 33-100% B (30% acetonitrile with 0.05% TFA) in 8 min at 1.6 mL min^−1. Demyristoylation reactions were analyzed using a gradient of 3 to 100% B (acetonitrile with 0.05% TFA) in 10 min at 1.6 mL min^−1. The product and substrate peaks were quantified and ratio of these allowed for quantification of product formation. Three independent experiments were performed for each condition with averages being plotted and error bars representing the standard deviation of these replicates. […]

SIRT1 = biological target: T1, SIRT1 (Homo sapiens, UniProt Q96EB6); assay: SIRT1 deacetylase activity against H3K9ac peptide; type: biochemical; details: 400 μM compound
T1 sequence (Q96EB6 1-747): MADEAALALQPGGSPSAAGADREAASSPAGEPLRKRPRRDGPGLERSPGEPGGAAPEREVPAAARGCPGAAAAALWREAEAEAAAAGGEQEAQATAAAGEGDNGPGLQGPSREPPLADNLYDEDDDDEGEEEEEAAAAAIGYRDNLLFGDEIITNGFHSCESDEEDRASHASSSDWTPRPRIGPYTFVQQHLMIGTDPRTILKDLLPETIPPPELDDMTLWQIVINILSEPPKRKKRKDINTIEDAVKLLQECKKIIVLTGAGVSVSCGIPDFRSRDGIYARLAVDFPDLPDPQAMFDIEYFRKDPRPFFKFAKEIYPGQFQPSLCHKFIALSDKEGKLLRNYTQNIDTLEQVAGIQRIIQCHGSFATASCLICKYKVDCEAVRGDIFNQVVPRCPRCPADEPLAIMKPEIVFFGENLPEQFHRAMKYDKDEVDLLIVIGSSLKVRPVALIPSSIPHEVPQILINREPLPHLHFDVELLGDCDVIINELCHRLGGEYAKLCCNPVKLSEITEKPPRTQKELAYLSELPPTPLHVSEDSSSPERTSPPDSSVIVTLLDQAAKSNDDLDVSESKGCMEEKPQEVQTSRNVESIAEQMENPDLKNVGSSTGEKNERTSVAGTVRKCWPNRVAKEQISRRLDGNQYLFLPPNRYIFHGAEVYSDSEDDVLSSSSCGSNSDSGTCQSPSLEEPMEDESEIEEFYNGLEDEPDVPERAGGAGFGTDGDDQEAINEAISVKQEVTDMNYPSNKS
Protocol: FIGS. 1A-F illustrate the identification of novel SIRT6 activators. (1A) Compound libraries BML-2803, BML-2800, and an additional set of 178 molecules were screened at 100 μM for their ability to stimulate SIRT6 (1 μM) deacetylation of H3K9ac peptide (20 μM) in the presence of 0.5 mM NAD^+. SIRT6 activity was measured by HPLC quantification of H3K9ac and deacetylated product (inset) and fold activations relative to DMSO control were determined and compiled. (1B) Fold-activation of SIRT6 (1 μM) determined in the presence of either 0-400 μM CL4, 0-150 μM TTNPB, 0-100 μM Lysophosphatidic acid (LPA), or 0-200 μM linoleoylglycine (LGly). Maximum fold-activation and EC50 determined by sigmoidal curve fit. […] Constants Km, H3K9ac and kcat were determined by fitting data to Michaelis-Menten equation. (1D) Fold-activations of SIRT1 (0.1 μM), SIRT2 (0.2 μM), SIRT3 (1 μM), SIRT5 (2 μM), and SIRT6 (1 μM) determined in the presence of CL4 (100 μM), TTNPB (50 μM), and LPA (50 μM) relative to DMSO control against 20 μM H3K9ac peptide and 0.5 mM NAD^+. […]
All sirtuin deacylation assays were carried out at 37° C. in 20 mM potassium phosphate pH 7.5 with 0.5 mM NAD^+, 10% DMSO, and 20 μM H3K9ac or H3K9myr peptides, unless otherwise noted in legend, and quenched by the addition of 2% TFA final. […] The product and substrate peaks were quantified and ratio of these allowed for quantification of product formation. […]

SIRT6 WT, sequence (Q8N6T7 whole entry): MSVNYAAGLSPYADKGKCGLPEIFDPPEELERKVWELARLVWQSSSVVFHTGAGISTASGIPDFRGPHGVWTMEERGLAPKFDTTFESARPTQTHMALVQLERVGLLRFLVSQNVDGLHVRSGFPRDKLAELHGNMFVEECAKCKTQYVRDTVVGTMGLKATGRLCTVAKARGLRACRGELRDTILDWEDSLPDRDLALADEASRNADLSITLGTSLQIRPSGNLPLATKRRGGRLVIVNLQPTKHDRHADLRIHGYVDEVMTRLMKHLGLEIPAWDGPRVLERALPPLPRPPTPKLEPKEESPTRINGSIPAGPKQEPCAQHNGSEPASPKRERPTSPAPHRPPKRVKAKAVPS

Structure (SMILES): O=C(O)c1ccc2c(c1)C(=O)N(c1ccc(N(C(=O)c3c(Cl)cc(Cl)cc3Cl)C(=O)c3c(Cl)cc(Cl)cc3Cl)c(Cl)c1)C2=O [CL-5D, 2-(3-chloro-4-(2,4,6-trichloro-N-(2,4,6-trichlorobenzoyl)benzamido)phenyl)-1,3-dioxoisoindoline-5-carboxylic acid]
- RateCL5D (SIRT6 WT): 0.164 ± 0.008 µM/min
- SIRT1 deacetylase activity at high activator concentration (SIRT1): inhibited
